For series [1] the following is noted: Crystal; DTA.
Series [2] is described as follows: molar enthalpy of vaporization or sublimation. Particulars: Liquid, DSC.
A short description of series [3]: Molar enthalpy of transition or fusion. As to conditions: Crystal; DSC.

± gives the expanded uncertainty stated by the source.

With `CCNc1nc(NC(C)(C)C)nc(SC)n1`, the Normal melting temperature in series [1] was 99.2 ± 0.5 °C. Also, the molar enthalpy in series [2] (467 K) worked out at 20.8 ± 2.39 kcal/mol. For the same compound, in series [3], the “Molar enthalpy of transition or fusion” value turned out to be 5.02 ± 0.956 kcal/mol.
For the compound `CCNc1nc(NCC)nc(SC)n1` [2-methylthio-4,6-bis(ethylamino)-1,3,5-triazine], the Normal melting temperature in series [1] worked out at 77.4 ± 0.5 °C. Moreover, the molar enthalpy in series [2] (461 K) was determined as 21 ± 1.91 kcal/mol. Besides, the “Molar enthalpy of transition or fusion” value in series [3] was 5.74 ± 0.478 kcal/mol.
In the case of `CCNc1nc(NC(C)C)nc(SC)n1` [2-methylthio-4-ethylamino-6-isopropylamino-1,3,5-triazine], the Normal melting temperature in series [1] came out at 83.6 ± 0.5 °C. Further, the molar enthalpy in series [2] (466 K) amounted to 21.7 ± 1.91 kcal/mol. Also, in series [3], the “Molar enthalpy of transition or fusion” value is 6.21 ± 0.956 kcal/mol.

The values above are taken from the NIST ThermoML archive (doi:10.1021/je600580r).
